The results in this text go back to patent US12539292B2, “BRM targeting compounds and associated methods of use” (Arvinas Operations, Inc., priority 2018, dated 2026).

For orientation: DC50 means the midpoint of the concentration-degradation curve. For orientation: Dmax means the largest share of the target that was removed.

For the first assay, the target named is T1, BRM (Homo sapiens, UniProt P51531).
T1 construct: In-Cell Western Screen of BRM Degradation in SW1573 Cells; endogenous in cells; host or cells: SW1573
T1 sequence (P51531 whole entry): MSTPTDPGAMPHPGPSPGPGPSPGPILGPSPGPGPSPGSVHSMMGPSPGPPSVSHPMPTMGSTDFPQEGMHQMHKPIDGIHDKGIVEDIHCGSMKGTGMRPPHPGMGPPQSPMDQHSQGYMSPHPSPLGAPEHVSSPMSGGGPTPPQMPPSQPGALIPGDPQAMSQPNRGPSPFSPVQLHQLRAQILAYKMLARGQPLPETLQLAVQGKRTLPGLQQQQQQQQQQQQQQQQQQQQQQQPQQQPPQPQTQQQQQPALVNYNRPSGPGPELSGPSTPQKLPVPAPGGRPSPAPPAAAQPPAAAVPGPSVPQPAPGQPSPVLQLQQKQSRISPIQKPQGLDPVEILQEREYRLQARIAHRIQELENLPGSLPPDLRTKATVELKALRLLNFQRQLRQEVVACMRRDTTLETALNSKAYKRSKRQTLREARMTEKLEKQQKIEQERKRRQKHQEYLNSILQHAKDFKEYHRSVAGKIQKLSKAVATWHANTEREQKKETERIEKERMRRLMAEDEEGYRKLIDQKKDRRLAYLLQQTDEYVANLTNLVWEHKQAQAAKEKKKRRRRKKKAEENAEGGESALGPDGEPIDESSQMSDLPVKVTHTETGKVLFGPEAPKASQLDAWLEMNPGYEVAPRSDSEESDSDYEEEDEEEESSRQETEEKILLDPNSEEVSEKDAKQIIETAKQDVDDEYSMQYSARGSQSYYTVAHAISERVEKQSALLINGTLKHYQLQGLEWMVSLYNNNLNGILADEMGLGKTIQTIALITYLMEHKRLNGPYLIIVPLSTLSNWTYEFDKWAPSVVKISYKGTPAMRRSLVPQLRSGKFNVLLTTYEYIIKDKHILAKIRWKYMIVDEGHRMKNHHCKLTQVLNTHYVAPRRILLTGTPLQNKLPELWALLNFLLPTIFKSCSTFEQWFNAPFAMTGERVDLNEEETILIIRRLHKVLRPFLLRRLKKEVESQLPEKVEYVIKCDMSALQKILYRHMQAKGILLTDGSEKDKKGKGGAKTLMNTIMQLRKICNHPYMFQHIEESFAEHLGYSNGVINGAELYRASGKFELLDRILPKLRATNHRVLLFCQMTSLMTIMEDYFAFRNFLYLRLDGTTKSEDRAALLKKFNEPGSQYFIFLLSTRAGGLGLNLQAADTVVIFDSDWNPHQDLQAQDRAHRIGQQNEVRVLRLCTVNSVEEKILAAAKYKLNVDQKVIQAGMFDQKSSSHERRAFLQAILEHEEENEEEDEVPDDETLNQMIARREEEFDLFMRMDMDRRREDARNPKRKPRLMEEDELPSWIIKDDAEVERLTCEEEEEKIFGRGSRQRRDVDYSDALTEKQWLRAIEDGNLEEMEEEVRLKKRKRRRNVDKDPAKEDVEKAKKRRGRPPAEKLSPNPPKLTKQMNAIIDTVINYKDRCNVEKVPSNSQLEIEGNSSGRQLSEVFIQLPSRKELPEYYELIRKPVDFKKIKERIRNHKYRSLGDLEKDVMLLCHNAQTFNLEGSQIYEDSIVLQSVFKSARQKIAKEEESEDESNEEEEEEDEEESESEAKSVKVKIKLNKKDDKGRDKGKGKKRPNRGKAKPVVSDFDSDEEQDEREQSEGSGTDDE
Kind of assay: In-cell Western screen of BRM degradation in SW1573 cells (Dmax and DC50). In kind it is cell-based. The conditions noted are these: % degraded; when tested at the top concentration of between 0.3 and 10 μM. The method in brief:
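SW1573, overnight cpd exposure (18-20 h), 0.1% DMSO final. PFA fix, 0.5% Triton permeabilization, block; IR secondaries at 800/680 nm. Odyssey read → Dmax, DC50.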
On to `Cc1ncsc1-c1ccc([C@H](C)NC(=O)[C@@H]2C[C@@H](O)CN2C(=O)[C@@H](NC(=O)CN2CCC(OC3CC(Oc4cc(N5C6CC[C@@H]5CN(c5cc(-c7ccccc7O)nnc5N)C6)ccn4)C3)CC2)C(C)(C)C)cc1` (stereo partly drawn) [compound 520, (2S,4R)-1-((2S)-2-(2-(4-((1r,3S)-3-((4-(3-(3-amino-6-(2-hydroxyphenyl)pyridazin-4-yl)-3,8-diazabicyclo[3.2.1]octan-8-yl)pyridin-2-yl)oxy)cyclobutoxy)pipcridin-1-yl)acetamido)-3,3-dimethylbutanoyl)-4-hydroxy-N-((S)-1-(4-(4-methylthiazol-5-yl)phenyl)ethyl)pyrrolidine-2-carboxamide], for which the “BRM Dmax (%)” value is listed as “A (A > 75)”.

Still in this assay, the particulars now being: BRM degradation; read-out: BRM DC50.
`Cc1ncsc1-c1ccc([C@H](C)NC(=O)[C@@H]2C[C@@H](O)CN2C(=O)[C@H](c2cc(N3CC(CN4CC(COc5cc(N6C7CCC6CN(c6cc(-c8ccccc8O)nnc6N)C7)ccn5)C4)C3)no2)C(C)C)cc1` [compound 518, (2S,4R)-1-((2S)-2-(3-(3-((3-(((4-(3-(3-amino-6-(2-hydroxyphenyl)pyridazin-4-yl)-3,8-diazabicyclo[3.2.1]octan-8-yl)pyridin-2-yl)oxy)methyl)azetidin-1-yl)methyl)azetidin-1-yl)isoxazol-5-yl)-3-methylbutanoyl)-4-hydroxy-N-((S)-1-(4-(4-methylthiazol-5-yl)phenyl)ethyl)pyrrolidine-2-carboxamide]: the DC50 was over 30 nM.

For `Cc1ncsc1-c1ccc([C@H](C)NC(=O)[C@@H]2C[C@@H](O)CN2C(=O)[C@@H](c2cc(N3CC(CN4CC(COc5cc(N6C7CCC6CN(c6cc(-c8ccccc8O)nnc6N)C7)ccn5)C4)C3)no2)C(C)C)cc1` [compound 519, (2S,4R)-1-((2R)-2-(3-(3-((3-(((4-(3-(3-amino-6-(2-hydroxyphenyl)pyridazin-4-yl)-3,8-diazabicyclo[3.2.1]octan-8-yl)pyridin-2-yl)oxy)methyl)azetidin-1-yl)methyl)azetidin-1-yl)isoxazol-5-yl)-3-methylbutanoyl)-4-hydroxy-N-((S)-1-(4-(4-methylthiazol-5-yl)phenyl)ethyl)pyrrolidine-2-carboxamide], the DC50 is over 30 nM. Still for that read-out and setting: the value for `Cc1ncsc1-c1ccc([C@H](C)NC(=O)[C@@H]2C[C@@H](O)CN2C(=O)[C@@H](NC(=O)CN2CCC(OC3CC(Oc4cc(N5C6CC[C@@H]5CN(c5cc(-c7ccccc7O)nnc5N)C6)ccn4)C3)CC2)C(C)(C)C)cc1` (stereo partly drawn) [compound 520, (2S,4R)-1-((2S)-2-(2-(4-((1r,3S)-3-((4-(3-(3-amino-6-(2-hydroxyphenyl)pyridazin-4-yl)-3,8-diazabicyclo[3.2.1]octan-8-yl)pyridin-2-yl)oxy)cyclobutoxy)pipcridin-1-yl)acetamido)-3,3-dimethylbutanoyl)-4-hydroxy-N-((S)-1-(4-(4-methylthiazol-5-yl)phenyl)ethyl)pyrrolidine-2-carboxamide] was under 2.5 nM; that for `Cc1ncsc1-c1ccc([C@H](C)NC(=O)[C@@H]2C[C@@H](O)CN2C(=O)[C@H](c2cc(N3CCN(CC#Cc4ncc(O[C@H]5C[C@H](Oc6cc(N7C8CCC7CN(c7cc(-c9ccccc9O)nnc7N)C8)ccn6)C5)cn4)CC3)no2)C(C)C)cc1` [compound 521, (2S,4R)-1-((2S)-2-(3-(4-(3-(5-((1r,3r)-3-((4-(3-(3-amino-6-(2-hydroxyphenyl)pyridazin-4-yl)-3,8-diazabicyclo[3.2.1]octan-8-yl)pyridin-2-yl)oxy)cyclobutoxy)pyrimidin-2-yl)prop-2-yn-1-yl)piperazin-1-yl)isoxazol-5-yl)-3-methylbutanoyl)-4-hydroxy-N-((S)-1-(4-(4-methylthiazol-5-yl)phenyl)ethyl)pyrrolidine-2-carboxamide] was over 30 nM. On the same count and under the same terms, the value for `Cc1ncsc1-c1ccc([C@H](C)NC(=O)[C@@H]2C[C@@H](O)CN2C(=O)[C@@H](c2cc(N3CCN(CC#Cc4ncc(O[C@H]5C[C@H](Oc6cc(N7C8CCC7CN(c7cc(-c9ccccc9O)nnc7N)C8)ccn6)C5)cn4)CC3)no2)C(C)C)cc1` [compound 522, (2S,4R)-1-((2R)-2-(3-(4-(3-(5-((1r,3r)-3-((4-(3-(3-amino-6-(2-hydroxyphenyl)pyridazin-4-yl)-3,8-diazabicyclo[3.2.1]octan-8-yl)pyridin-2-yl)oxy)cyclobutoxy)pyrimidin-2-yl)prop-2-yn-1-yl)piperazin-1-yl)isoxazol-5-yl)-3-methylbutanoyl)-4-hydroxy-N-((S)-1-(4-(4-methylthiazol-5-yl)phenyl)ethyl)pyrrolidine-2-carboxamide] was under 2.5 nM. As for `Cc1cc([C@@H](C(=O)N2C[C@H](O)C[C@H]2C(=O)N[C@H](COCCOCCNc2ccc(-c3ccccc3O)nn2)c2ccc(-c3scnc3C)cc2)C(C)C)on1` [compound 523, (2S,4R)-4-hydroxy-N-((S)-2-(2-(2-((6-(2-hydroxyphenyl)pyridazin-3-yl)amino)ethoxy)ethoxy)-1-(4-(4-methylthiazol-5-yl)phenyl)ethyl)-1-((S)-3-methyl-2-(3-methylisoxazol-5-yl)butanoyl)pyrrolidine-2-carboxamide], the half-maximal degradation concentration (DC50) is over 30 nM. `Cc1cc([C@H](C(=O)N2C[C@H](O)C[C@H]2C(=O)N[C@H](COCCOCCNc2ccc(-c3ccccc3O)nn2)c2ccc(-c3scnc3C)cc2)C(C)C)on1` [compound 524, (2S,4R)-4-hydroxy-N-((S)-2-(2-(2-((6-(2-hydroxyphenyl)pyridazin-3-yl)amino)ethoxy)ethoxy)-1-(4-(4-methylthiazol-5-yl)phenyl)ethyl)-1-((R)-3-methyl-2-(3-methylisoxazol-5-yl)butanoyl)pyrrolidine-2-carboxamide]: the DC50 is over 30 nM. The same measure, in the same setting: the value for `Cc1cc([C@@H](C(=O)N2C[C@H](O)C[C@H]2C(=O)N[C@@H](COCCOCCNc2ccc(-c3ccccc3O)nn2)c2ccc(-c3scnc3C)cc2)C(C)C)on1` [compound 525, (2S,4R)-4-hydroxy-N-((R)-2-(2-(2-((6-(2-hydroxyphenyl)pyridazin-3-yl)amino)ethoxy)ethoxy)-1-(4-(4-methylthiazol-5-yl)phenyl)ethyl)-1-((S)-3-methyl-2-(3-methylisoxazol-5-yl)butanoyl)pyrrolidine-2-carboxamide] was over 30 nM. Still for that read-out and setting: the value for `Cc1cc([C@H](C(=O)N2C[C@H](O)C[C@H]2C(=O)N[C@@H](COCCOCCNc2ccc(-c3ccccc3O)nn2)c2ccc(-c3scnc3C)cc2)C(C)C)on1` [compound 526, (2S,4R)-4-hydroxy-N-((R)-2-(2-(2-((6-(2-hydroxyphenyl)pyridazin-3-yl)amino)ethoxy)ethoxy)-1-(4-(4-methylthiazol-5-yl)phenyl)ethyl)-1-((R)-3-methyl-2-(3-methylisoxazol-5-yl)butanoyl)pyrrolidine-2-carboxamide] was over 30 nM; that for `Cc1cc([C@@H](C(=O)N2C[C@H](O)C[C@H]2C(=O)N[C@H](COCCCCCc2cc(-c3ccccc3O)nnc2N)c2ccc(-c3scnc3C)cc2)C(C)C)on1` [compound 527, (2S,4R)-N-((S)-2-((5-(3-amino-6-(2-hydroxyphenyl)pyridazin-4-yl)pentyl)oxy)-1-(4-(4-methylthiazol-5-yl)phenyl)ethyl)-4-hydroxy-1-((S)-3-methyl-2-(3-methylisoxazol-5-yl)butanoyl)pyrrolidine-2-carboxamide] was over 30 nM; that for `Cc1cc([C@H](C(=O)N2C[C@H](O)C[C@H]2C(=O)N[C@H](COCCCCCc2cc(-c3ccccc3O)nnc2N)c2ccc(-c3scnc3C)cc2)C(C)C)on1` [compound 528, (2S,4R)-N-((S)-2-((5-(3-amino-6-(2-hydroxyphenyl)pyridazin-4-yl)pentyl)oxy)-1-(4-(4-methylthiazol-5-yl)phenyl)ethyl)-4-hydroxy-1-((R)-3-methyl-2-(3-methylisoxazol-5-yl)butanoyl)pyrrolidine-2-carboxamide] was over 30 nM.

Staying with this assay, now noted: SW1573; % degraded; when tested at the top concentration of between 0.3 and 10 μM; read-out: BRM Dmax (%).
For the compound `Cc1ncsc1-c1ccc([C@H](C)NC(=O)[C@@H]2C[C@@H](O)CN2C(=O)[C@@H](c2cc(N3CCN(CC#Cc4ncc(O[C@H]5C[C@H](Oc6cc(N7C8CCC7CN(c7cc(-c9ccccc9O)nnc7N)C8)ccn6)C5)cn4)CC3)no2)C(C)C)cc1` [compound 522, (2S,4R)-1-((2R)-2-(3-(4-(3-(5-((1r,3r)-3-((4-(3-(3-amino-6-(2-hydroxyphenyl)pyridazin-4-yl)-3,8-diazabicyclo[3.2.1]octan-8-yl)pyridin-2-yl)oxy)cyclobutoxy)pyrimidin-2-yl)prop-2-yn-1-yl)piperazin-1-yl)isoxazol-5-yl)-3-methylbutanoyl)-4-hydroxy-N-((S)-1-(4-(4-methylthiazol-5-yl)phenyl)ethyl)pyrrolidine-2-carboxamide], the Dmax was over 75%.
